The values that follow come from patent US9918983B2, “Suicidal LSD1 inhibitors targeting SOX2-expressing cancer cells” (THE BOARD OF REGENTS OF THE NEVADA SYSTEM OF HIGHER …, priority 2013, dated 2018).

One data set deals with T1, LSD1 (Homo sapiens, UniProt O60341).
T1 construct: LSD1 activity determined in a cell-based assay as described herein; endogenous in cells
In words: LSD1 activity (LSD1 IC50, Table 7, FIG. 2). It is filed as cell-based. On the procedure:
For a typical deacetylation assay, 1 μg rHDAC1 or 1 μg immunoprecipitated endogenous HDAC1-protein A complexes (from two 10-cm dishes) was incubated with 0.4 μg H4K16ac peptide in the presence or absence of 50 μM CBB1007 or 2 μM MS-275 at 30° C. for 1 h. The percentages of deacetylated products were analyzed by mass spectrometry, and the data were analyzed by GraphPad Prism (version 5) software. The reaction products were analyzed by mass spectrometry to separate the peptide substrate (H4K16ac) and the product (H4K16), as previously described (Wang, J., et al. (2011) Cancer Research 71, 7238-7249). For a typical demethylation assay, 0.4 μg H3K4me2 substrate peptide was incubated individually with 1 μg recombinant LSD1 (rLSD1) or 1 μg immunoprecipitated LSD1-protein A complex in the presence or absence of 50 μM CBB1007 or 2 μM MS-275 at 30° C. for 1 h. The reaction products were analyzed by mass spectrometry to separate the products (H3K4me1 and H3K4) from the substrate (H3K4me2), as previously described (Wang, J., et al. (2011) Cancer Research 71, 7238-7249).
Table 7 below lists specific compounds and LSD1 activity determined in a cell-based assay as described herein (see also FIGS. 2A and 2B).

The subject of another data set is acetylated H4K16. Nature of the data set: H4K16 acetylation in HeLa cells (Western blotting). The format is cell-based, human. As to conditions: VPA 1 μM or MS-275 2 μM 24 h, TSA 40 nM 16 h. The protocol:
Referring to FIG. 31B, the acetylation of H4K16 is sensitive to pan-HDAC inhibitors in HeLa cells. F9 and HeLa cells were treated with the HDAC inhibitor VPA (1 μM) or MS-275 (2 μM) for 24 h or TSA (40 nM) for 16 h. Methylated and acetylated histones H3 and H4 were blotted by specific antibodies, as indicated, and quantified by the use of Gel-Pro Analyzer (version 4.0) software.

Data set [1] addresses T2, recombinant HDAC1 (GST-HDAC1) (Homo sapiens, UniProt Q13547).
T2 construct: Human LSD1 and HDAC1 full-length cDNAs were obtained from Open Biosystems; GST (N, cleaved yes); made in house; host or cells: Escherichia coli BL21
Nature of the data set: In vitro deacetylation assay, recombinant HDAC1, H4K16ac peptide. It is filed as biochemical. Particulars: 50 μM CBB1007 or 2 μM MS-275.
Description: Human LSD1 and HDAC1 full-length cDNAs were obtained from Open Biosystems. […] These cDNAs were fully sequenced and cloned into the pGEX-KG or pET28a vector and expressed as the glutathione S-transferase (GST)- or His-tagged fusion proteins in the Escherichia coli BL21 strain and affinity purified with glutathione or Ni-Sepharose (GE Healthcare, United Kingdom) resin. […] The GST tag and uncut GST-HDAC1/GST-LSD1 proteins were depleted by glutathione-Sepharose. For the reconstitution reaction, recombinant GST-CoREST, His-LSD1, and recombinant HDAC1 (rHDAC1) (GST was removed by the use of PreScission protease) (10 μg) were assembled into the LSD1-CoREST-HDAC1 complex and then pulled down by GSTSepharose resins. Protein A-Sepharose was used as a negative-control resin.

In data set [2] the test system is histone H3 and H4 methylation and acetylation. In words: Histone modifications in F9 cells (Western blotting). The format is cell-based, mouse. On the procedure: To quantify and compare the protein band densities in the Western blots shown in the figures, a titration by serial dilution of the siRNA protein samples for mES cell lysates was used as a reference. The concentration of titration samples was measured by use of a NanoDrop 2000 apparatus, and the protein concentration of all titration samples was adjusted to 1 μg/μL. The protein samples were loaded onto an SDS-polyacrylamide gel at levels ranging from 1 μg to 13 μg at 2-μg intervals and immune blotted with each antibody, including anti-LSD1, anti-HDAC1, and anti-histone H3 antibodies, with three independent loadings. The Western blots were developed with exposure times ranging from 30 s to 1 min. The exposure density of each band was scanned by Adobe Photoshop Elements (version 4.0) software using a CanonScan 8600F scanner (Canon, Calif.) and was subsequently quantified by use of the area density tool of Gel-Pro Analyzer (version 4.0) software (Media Cybernetics, Inc.) and plotted. The regression analysis of each signal was performed by use of the Microsoft Excel program's Analysis Tool Pak regression option. […] The amount of the protein band in the Western blot shown in the figures was quantified by scanning, as described for the reference titration. […] The quantity of protein band densities between two protein samples was externally corrected by use of the reference plots. […] The statistical differences between the experimental and control groups were analyzed by one-way analysis of variance (ANOVA). […]
Referring to FIG. 28D, time course analyses of the effects of 50 μM LSD1 inhibitor CBB1007 on histone modifications in F9 cells are shown, but with a shorter time course than above. The mean density of each band was quantified by the use of Gel-Pro Analyzer (version 4.0) software, and error bars represent SEMs for duplicate samples. […] The statistical differences were analyzed by one-way ANOVA. *, P_0.05; **, P_0.01. […]

In data set [3] the target is T3, LSD1-CoREST-HDAC1 complex (Homo sapiens, UniProt O60341+Q13547).
T3 construct: Human LSD1 and HDAC1 full-length cDNAs were obtained from Open Biosystems; GST (N, cleaved yes); made in house; host or cells: Escherichia coli BL21
In words: Reconstituted LSD1-CoREST-HDAC1 complex on oligonucleosomes. As to conditions: 50 μM CBB1007 or 2 μM MS-275. It is filed as biochemical.
Protocol: For the reconstitution reaction, recombinant GST-CoREST, His-LSD1, and recombinant HDAC1 (rHDAC1) (GST was removed by the use of PreScission protease) (10 μg) were assembled into the LSD1-CoREST-HDAC1 complex and then pulled down by GSTSepharose resins. Protein A-Sepharose was used as a negative-control resin.
Briefly, cells (1×10^6) were washed twice with ice-cold hypotonic buffer (20 mM potassium-HEPES, pH 7.8, 5 mM potassium acetate, 0.5 mM MgCl2, 0.5 mM DTT), swelled, and disrupted with 25 strokes in a Dounce homogenizer using a tightfitting pestle. Nuclei were pelleted at 4,000 rpm for 5 min and resuspended in buffer A (20 mM HEPES, pH 7.9, 1.5 mM magnesium acetate, 50 mM potassium acetate, 10% glycerol, 0.5 mM DTT, 150 mM NaCl, protease and phosphatase inhibitors). […] The chromatin pellet was resuspended in 0.5 mL buffer B (0.32 M sucrose, 50 mM Tris-HCl, pH 7.5, 4 mM MgCl2, 1 mM CaCl2, 0.1 mM phenylmethylsulfonyl fluoride) and incubated with 30 units of micrococcal nuclease for 10 min at 37° C. The digested samples were centrifuged at 8,000×g for 10 min, and the supernatant, which contained oligonucleosomes, was recovered.
The reaction products (demethylated or deacetylated histones) were analyzed by Western blotting.

A further data set has as its target T4, LSD1-protein A complex (Mus musculus, UniProt Q6ZQ88).
T4 construct: recombinant and endogenous LSD1 complexes isolated from F9 cells; endogenous in cells; host or cells: F9 mouse teratocarcinoma cells, anti-LSD1 immunoprecipitate on protein A-Sepharose
Nature of the data set: In vitro demethylation assay, immunoaffinity-purified LSD1-protein A complex from F9 cells. It is filed as biochemical.

Data set [4] concerns the target T5, recombinant LSD1 (GST-LSD1) (Homo sapiens, UniProt O60341).
T5 construct: Human LSD1 and HDAC1 full-length cDNAs were obtained from Open Biosystems; GST (N, cleaved yes); made in house; host or cells: Escherichia coli BL21
Nature of the data set: In vitro demethylation assay, recombinant LSD1, H3K4me2 peptide. As to conditions: H3K4me2 peptide, LSD1 and HDAC1 without CoREST. It is filed as biochemical. The text has this:
H3K4me2 and H4K16ac were purchased from AnaSpec and Shanghai Science Peptide Biological Technology Co., Ltd., respectively. Human LSD1 and HDAC1 full-length cDNAs were obtained from Open Biosystems. Human CoREST cDNA was amplified by reverse transcription-PCR (RT-PCR) using mRNA isolated from HeLa cells. These cDNAs were fully sequenced and cloned into the pGEX-KG or pET28a vector and expressed as the glutathione S-transferase (GST)- or His-tagged fusion proteins in the Escherichia coli BL21 strain and affinity purified with glutathione or Ni-Sepharose (GE Healthcare, United Kingdom) resin. […]
For a typical deacetylation assay, 1 μg rHDAC1 or 1 μg immunoprecipitated endogenous HDAC1-protein A complexes (from two 10-cm dishes) was incubated with 0.4 μg H4K16ac peptide in the presence or absence of 50 μM CBB1007 or 2 μM MS-275 at 30° C. for 1 h. The percentages of deacetylated products were analyzed by mass spectrometry, and the data were analyzed by GraphPad Prism (version 5) software. The reaction products were analyzed by mass spectrometry to separate the peptide substrate (H4K16ac) and the product (H4K16), as previously described (Wang, J., et al. (2011) Cancer Research 71, 7238-7249). […]

A further data set deals with T6, HDAC1-protein A complex (Mus musculus, UniProt O09106).
T6 construct: 1 μg immunoprecipitated endogenous HDAC1-protein A complexes; endogenous in cells; host or cells: F9 mouse teratocarcinoma cells, anti-HDAC1 immunoprecipitate on protein A-Sepharose
Nature of the data set: In vitro deacetylation assay, immunoaffinity-purified HDAC1-protein A complex from F9 cells. It is filed as biochemical.

The test system of another data set is IGROV1 cells. Nature of the data set: Cell cycle analysis by FACS in IGROV1 cells. Particulars: 50 nM siRNA. The format is cell-based, human. The protocol: (§1) The fluorescence-activated cell sorting (FACS) and 3-(4,5-dimethyl-2-thiazolyl)-2,5-diphenyl-2H-tetrazolium bromide (MTT) assays were conducted as described previously (Lan, R., et al. (2012) Lab. Invest. 92, 1503-1514). To synchronize PA-1 and F9 cells at the G1/S phase transition, cells were treated with 2.5 mM thymidine for 12 h, released into fresh medium for 6 h, and blocked again with 2.5 mM thymidine for an additional 12 h. The cell cycle arrest was analyzed by FACS. For differentiation, F9 and PA-1 cells were seeded in 6-well plates at a density of 1×10^4 cells per well and supplemented with 5 μM RA for 3 days. Cells were then recultured in fresh medium without RA for another 2 days, and the cell cycle was analyzed on a BD FACSCalibur cell sorter using the CellQuest program (Becton, Dickinson, Mountain View, Calif.). The percentages of cells in G1, S, and G2/M phases were determined by the use of ModFit LT software.
(§2) Referring to FIG. 9C, Sox2-expressing A549, IGROV1, T47D and Sox2-negative H1437 cells were transfected with 50 nM luciferase (Luc) or LSD1 specific siRNAs for 60 hours and the cell cycle was analyzed by flow-cytometry (FACS).
(§3) Referring to FIG. 17A, Sox2-expressing A549, IGROV1, and T47D and Sox2-negative H1437 cells were transfected with luciferase and Sox2 specific siRNAs for 48 hours. The cell cycles of these cells after Sox2 ablation were analyzed by flow-cytometry.

Another data set has as its system T47D cells. Nature of the data set: Cell cycle analysis by FACS in T47D cells. As to conditions: 50 nM siRNA. The format is cell-based, human. On the procedure:
as §1, §2, §3

A further data set concerns A549 cells. Nature of the data set: Cell cycle analysis by FACS in A549 cells. It is filed as cell-based, human. Particulars: 50 nM siRNA. On the procedure: as §1, §2, §3
The subject of another data set is H1437 cells. Nature of the data set: Cell cycle analysis by FACS in H1437 cells. The format is cell-based, human. Particulars: 50 nM siRNA. On the procedure:
as §1, §2, §3

T2 sequence (Q13547 whole entry): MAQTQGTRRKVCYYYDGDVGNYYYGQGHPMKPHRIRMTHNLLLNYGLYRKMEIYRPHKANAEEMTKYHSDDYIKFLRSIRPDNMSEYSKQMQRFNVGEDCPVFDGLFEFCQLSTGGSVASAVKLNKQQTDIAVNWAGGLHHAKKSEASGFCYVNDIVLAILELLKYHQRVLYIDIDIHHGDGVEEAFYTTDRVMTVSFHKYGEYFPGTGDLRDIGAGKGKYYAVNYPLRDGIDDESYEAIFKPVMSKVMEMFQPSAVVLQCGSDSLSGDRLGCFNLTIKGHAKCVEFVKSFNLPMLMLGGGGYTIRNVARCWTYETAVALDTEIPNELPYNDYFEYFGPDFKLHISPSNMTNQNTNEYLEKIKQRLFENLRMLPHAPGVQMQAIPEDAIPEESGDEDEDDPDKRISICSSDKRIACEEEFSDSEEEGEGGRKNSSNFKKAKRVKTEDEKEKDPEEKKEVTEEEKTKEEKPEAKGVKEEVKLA
Description for HDAC1-protein A complex: (§4) The immunocomplexes were captured by protein A-Sepharose. Isolated LSD1-protein A or HDAC1-protein A complexes were verified by Western blotting with LSD1 and HDAC1 antibodies.
Description for LSD1-protein A complex: as §4

In the case of `CN1CCN(CCN[C@@H]2C[C@H]2c2ccc(OCc3ccccc3)cc2)CC1` [Compound 2], at LSD1, the IC50 came out at 31.4 µM.

On LSD1, `N[C@@H]1C[C@H]1c1ccc(OCc2ccccc2)cc1` [Compound 3] returned an IC50 of 39.4 µM.

Take `Nc1ccccc1NC(=O)c1ccc(CNC(=O)OCc2cccnc2)cc1` [MS-275]: the “acetylated H4K16 level” value in the data set on acetylated H4K16 is given as “induced the accumulation of acetylated H4K16”. The “deacetylase activity of recombinant HDAC1” value in data set [1] is given as “inhibited”. Further, the “H4K16 acetylation of oligonucleosomes from treated cells” value in data set [2] is “hyperacetylated on H4K16”. In addition, in data set [3], the “HDAC1 deacetylase activity in the reconstituted complex” value is “blocking the HDAC1 activity” and the “LSD1 demethylase activity in the reconstituted complex” value was “partially inhibit the LSD1 demethylase activity”. Also, at LSD1-protein A complex, the “demethylation activity of immunoaffinity-purified LSD1 (LSD1-protein A)” value is listed as “blocked the demethylation activity”. Further, the “LSD1 activity in the absence of CoREST” value in data set [4] was “not sensitive”. Also, the “deacetylase activity of immunoaffinity-purified HDAC1 (HDAC1-protein A)” value on HDAC1-protein A complex is given as “sensitive”.

With `CC(/C=C/C(=O)NO)=C\[C@@H](C)C(=O)c1ccc(N(C)C)cc1` [TSA, trichostatin A], the “acetylated H4K16 level” value with acetylated H4K16 is given as “induced the accumulation of acetylated H4K16”.

On to `CCCC(CCC)C(=O)O` [VPA, valproic acid], for which the “acetylated H4K16 level” value in the data set with acetylated H4K16 was “induced the accumulation of acetylated H4K16”.

Consider “LSD1 siRNA: siRNA, human LSD1: GGAAGAAGAUAGUGAAAAC (SEQ ID NO:1) (listed as RNA, chemistry not given here)”, for which the “cell cycle population G0/G1” value amounted to 78.07% with IGROV1 cells, 76.34% in the data set with T47D cells, 74.81% in the data set with A549 cells and 37.28% with H1437 cells. Moreover, the “cell cycle population G2/M” value in the data set with IGROV1 cells is 8.56%; in the data set on T47D cells, 12.17%; with A549 cells, 0.65%; with H1437 cells, 37.75%. The “cell cycle population S” value in the data set with IGROV1 cells came to 13.37%; in the data set on T47D cells, 11.49%; with A549 cells it was 24.55%; in the data set on H1437 cells, 24.97%.

Consider “Sox2 siRNA: siRNA, human Sox2: CGCUCAUGAAGAAGGAUAA (SEQ ID NO:2) (listed as RNA, chemistry not given here)”, for which the “cell cycle population G0/G1” value in the data set with IGROV1 cells turned out to be 74.62%; with T47D cells, 74.65%; in the data set with A549 cells, 76.40%; with H1437 cells, 39.39%. The “cell cycle population G2/M” value was 12.52% in the data set with IGROV1 cells, 10.86% in the data set with T47D cells, 0.19% with A549 cells and 35.51% with H1437 cells. Further, the “cell cycle population S” value in the data set with IGROV1 cells came to 12.87%; with T47D cells it was 14.48%; in the data set on A549 cells, 23.41%; in the data set with H1437 cells, 25.10%.
